Assay: gradient 5% acetonitrile 3 min, to 50% in 2 min, to 85% in 15 min, held 3 min, 100 µL/min
Conditions: column: Zorbax Extend-C18 2.1 x 50 mm; eluents: water / acetonitrile, 0.1% formic acid
Outline: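 Values are retention times taken from adduct peaks that software picked and an analyst inspected. The pure standards were run as mixtures of ~100 molecules on HPLC linked to a quadrupole time-of-flight mass spectrometer, in positive and negative ionization mode. A Zorbax Extend-C18 column (2.1 × 50 mm, 1.8 μm) was used at 100 μL/min with water and acetonitrile, each including 0.1% formic acid.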

Row | RP-LC retention time [s] | Compound
1 | 844 | COc1ccc(NC(=O)c2cnc3c(c2)c(=O)n(C)c(=O)n3-c2ccccc2)c(OC)c1
2 | 879 | Cc1ccc(N2C(=O)N(CC(=O)N3CCC(C)CC3)C3CS(=O)(=O)CC32)cc1Cl (stereo not drawn)
3 | 894 | CN(C)c1ccc(-c2nc3cnccn3c2Nc2ccc(Br)cc2)cc1
4 | 799 | Cc1cccc(N2CCN(c3cc(C(=O)O)c4cc(NC(=O)C5CCCC5)ccc4n3)CC2)c1C
5 | 715 | CCn1ccc2cc(S(=O)(=O)N3CCCC(C(=O)NCCCN(C)Cc4ccccc4)C3)ccc21 (stereo not drawn)
6 | 670 | CCc1nc2cc(N3CCC(C(=O)NCC4CCCO4)CC3)cnc2nc1CC (stereo not drawn)
7 | 832 | Cc1ccc(CNC(=O)c2ncn3c2C(=O)N(C2CC2)C(C)(C(=O)NCc2ccc(C)cc2)C3)cc1 (stereo not drawn)
8 | 882 | CN1C(=O)C(C)(C)COc2cc(NC(=O)CCSc3ccccc3)ccc21
9 | 630 | CCOC(=O)N1CCN(c2cc(C(=O)O)c3cc(NC(=O)c4ccc(OC)cc4)ccc3n2)CC1
10 | 551 | O=C(NCc1ccccn1)c1ccc2ncnc(N3CCCCC3)c2c1
11 | 608 | O=C(c1cccs1)N1CCN(c2nnc3ccccn23)CC1
12 | 864 | O=C(Cc1ccc(F)cc1)N1CCN(C(=O)c2nnn3c2COC(c2ccccc2)C3)CC1 (stereo not drawn)
13 | 618 | O=C(CSc1ncnc2nc[nH]c12)Nc1ccccc1C(F)(F)F
14 | 800 | O=C(NCc1cccc(Br)c1)C1CCN(C(=O)C2Sc3ccccc3NC2=O)CC1 (stereo not drawn)
15 | 708 | Cc1cc(=O)n(CC(=O)Nc2cc(F)ccc2F)c(N2CCCCC2)n1
16 | 606 | COCCCNC(=O)C1CCN(c2cncnc2N2CCCCC2)CC1
17 | 911 | Cc1nn2c(S(=O)(=O)N3CCCCC3)c(C(C)C)nc2s1
18 | 712 | CCOc1ccc(NC(=O)Cc2cn(C)c3ncccc23)cc1
19 | 595 | Cc1nc(C)c(C(=O)NCC2CCCCC(=O)N2)s1 (stereo not drawn)
20 | 713 | Cc1ccc(C)c(NC(=O)Cn2cnc3nc(N4CCC(C(=O)NC5CC5)CC4)sc3c2=O)c1
21 | 678 | O=C(Nc1c(C(=O)N2CCN(c3ccccn3)CC2)[nH]c2ccccc12)c1ccc(Cl)cc1
22 | 947 | COc1ccccc1-c1noc(C2CCCN2C(=O)Nc2ccccc2Cl)n1 (stereo not drawn)

Row | RP-LC retention time [s] | Compound
23 | 680 | O=C(c1c(F)cccc1Cl)N1CCN(c2ccc3nnc(-c4ccco4)n3n2)CC1
24 | 874 | COc1cccc(NC(=O)c2cc(C)n3nccc3n2)c1
25 | 627 | COc1cc(NC(=O)N2CCCC(Cn3cnc4cccnc43)C2)cc(OC)c1OC (stereo not drawn)
26 | 640 | CC(=O)N1CCc2cc(N3CC(C(=O)NCc4ccco4)CC3=O)ccc21 (stereo not drawn)
27 | 713 | O=C(Cc1ccccc1)N1CCC(Nc2cccn3ncnc23)CC1
28 | 1090 | COc1ccc(-c2nc(C3CC(=O)N(c4ccc(C)cc4)C3)no2)c(C)c1 (stereo not drawn)
29 | 1170 | O=S(=O)(c1ccc(F)cc1)N1CCc2nc(-c3ccc(Cl)cc3)ncc2C1
30 | 673 | CCN(CC)CCCNC(=O)C1CCCN(c2ncc(-c3ccccc3)cn2)C1 (stereo not drawn)
31 | 1200 | COc1ccc(CNC(=O)Nc2ccc(-c3nc(-c4cc(C)ccc4C)co3)cc2)cc1
32 | 651 | O=C(NCC1CC1)c1cn(-c2ccc(NC(=O)C3CC3)cn2)cn1
33 | 590 | CNC(=O)c1nn(-c2ccc(OC)c(OC)c2)c(OC)cc1=O
34 | 1110 | O=S(=O)(c1cccc(-c2nnc(-c3ccc(F)cc3)o2)c1)N1CCCCCC1
35 | 914 | CC(C)c1ccc(NC(=O)C2CCN(C(=O)c3ncn4c3COC(c3ccccc3)C4)CC2)cc1 (stereo not drawn)
36 | 573 | Cc1ccc(C(O)CN2CCN(c3ccccn3)CC2)c(C)c1 (stereo not drawn)
37 | 542 | CCCNC(=O)c1nc(C)n(C2CCN(S(C)(=O)=O)CC2)c1C
38 | 695 | COc1ccc(OC)c(NC(=O)c2c(OC)cc(=O)n3c2CCCC3)c1
39 | 1060 | COc1cccc(Cn2cccc2-c2nc(-c3ccncc3)no2)c1
40 | 688 | CC1CN=C2C=C(N3CCN(C(=O)Nc4ccc(C(F)(F)F)cc4)CC3)N=CN21 (stereo not drawn)
41 | 682 | COc1ccc(-c2nc3ncccn3c2NCc2ccccc2)cc1OC
42 | 776 | COc1ccccc1CCC(=O)N(C)C[C@@]12CCC[C@H]1N(C)C(=O)CC2
43 | 758 | COC(=O)C(NC(=O)N1CCCn2nc(-c3ccc(OC)cc3)cc2C1)c1ccccc1 (stereo not drawn)
44 | 708 | Cc1cccc(-c2noc(-c3ccc(N4CCN(C)CC4)nc3)n2)c1

Row | RP-LC retention time [s] | Compound
45 | 596 | CCN1CCN(c2nc(F)c3c(c2F)S(=O)(=O)CCN3CC2CCCO2)CC1 (stereo not drawn)
46 | 988 | COc1cccc(C(=O)N2CCc3cc(-c4csc(C)n4)ccc32)c1
47 | 1140 | CC(C)c1ccc(N2C(=O)C3N=NN(Cc4nc(-c5ccccc5Br)no4)C3C2=O)cc1 (stereo not drawn)
48 | 748 | Oc1ccc(-c2nc3ccc(Cl)cn3c2Nc2ccc3c(c2)OCCO3)cc1
49 | 742 | CCc1ccc(C2=C(C)C(N3CCCN(C(=O)COC)CC3)=NS2(=O)=O)cc1
50 | 1060 | COc1ccc(-c2noc(CCCC(=O)Nc3nc(-c4ccccc4)cs3)n2)cc1
51 | 806 | COC(=O)C1=CN(C2CC2)c2cc(N3CCC4(CC3)OCCO4)c(F)cc2S1(=O)=O
52 | 1260 | Clc1ccc(-c2noc(Cc3nc(-c4ccc5c(c4)OCO5)cs3)n2)cc1
53 | 764 | COc1ccc(N2C=C(C(=O)N3CCCC3)S(=O)(=O)c3ccccc32)cc1
54 | 659 | O=C(NCc1ccc2c(c1)OCO2)C1CCN(c2cncnc2N2CCCCC2)CC1
55 | 912 | CCc1nn2c(CNC(=O)c3ccc(OC)c(F)c3)c(-c3ccccc3)nc2s1
56 | 943 | CCc1ccc(NC(=O)Cn2nc3c(Oc4cc(C)cc(C)c4)nccn3c2=O)cc1
57 | 711 | CCNC(=O)C1CCCN(c2nc3ncn(CC(=O)Nc4ccc(C)cc4C)c(=O)c3s2)C1 (stereo not drawn)
58 | 609 | COc1ccc(C(=O)N(CCS(=O)(=O)N2CCNCC2)CC2CCCO2)cc1 (stereo not drawn)
59 | 680 | O=S(=O)(c1cccc(C(F)(F)F)c1)N1CCC(CN2CCCCC2)CC1
60 | 1040 | O=C(Nc1cccc(Br)c1)c1cccn1Cc1noc(C2CC2)n1
61 | 638 | Cc1nn2c(CNC(=O)c3ccccc3C(F)(F)F)c(C)nc2s1
62 | 630 | O=C(CC1CCN(C(=O)Nc2cccc(Cl)c2)CC1)N1CCN(c2ccccn2)CC1
63 | 984 | CS(=O)(=O)N1CCCc2cc(C(=O)Nc3cccc(Br)c3)ccc21
64 | 874 | CC1=C(c2ccc(C)c(C)c2)S(=O)(=O)N=C1N1CCCN(C(=O)c2cccs2)CC1
65 | 673 | CC(C)(C)C(O)CCNC(=O)Cc1cccs1 (stereo not drawn)
66 | 921 | Cc1cc(OC(C)C(=O)Nc2ccnn2Cc2ccco2)ccc1Cl (stereo not drawn)

Row | RP-LC retention time [s] | Compound
67 | 770 | CN(C)CCCNc1cc(N2CCOCC2)c2noc3c2c1C(=O)c1ccccc1-3
68 | 713 | N#C/C(=C\c1c[nH]c2ccccc12)C(N)=O
69 | 910 | CCOc1ccccc1NC(=O)C1CCN(S(C)(=O)=O)c2cc(Cl)ccc2O1 (stereo not drawn)
70 | 754 | COc1ccc(OC)c(-c2ccc(=O)n(CCNC(=O)C(C)Oc3ccccc3F)n2)c1 (stereo not drawn)
71 | 752 | CCOc1ccc(NC(=O)N2CCN(c3nc4cccnc4s3)CC2)cc1
72 | 625 | COCc1noc([C@@H]2CN(C(=O)c3noc(C)c3COC)C[C@H]2C(N)=O)n1
73 | 690 | Cn1c(=O)c2nc(SCCC(=O)Nc3ccc(F)cc3)n(C)c2n(C)c1=O
74 | 830 | O=C(NCc1csc(-c2cccs2)n1)C1CCN(S(=O)(=O)c2cccs2)CC1
75 | 804 | COC(=O)C1=CN(c2ccc(OC)cc2)c2ccc(F)cc2S1(=O)=O
76 | 628 | CCOC(=O)c1c(C)oc2ncnc(N3CCN(c4ccccn4)CC3)c12
77 | 836 | CN(Cc1cccn1C)C(=O)NC1CCCCC1
78 | 601 | O=S(=O)(c1cccc(C(F)(F)F)c1)N1CCN(c2ccc(-n3ccnc3)nn2)CC1
79 | 1310 | CCCCn1c(=O)c2ccccc2n(Cc2nc(-c3ccc(CC)cc3)no2)c1=O
80 | 748 | O=C(NC1CCCCC1)C1COC2(CCN(C(=O)c3ccco3)CC2)N1C(=O)c1ccccc1 (stereo not drawn)
81 | 703 | COC(=O)c1c(NCC2CCCO2)c2cccc(Cl)c2[nH]c1=O (stereo not drawn)
82 | 809 | Cc1ccc(C2=NC3(CCN(C(=O)c4ccc5ccccc5n4)CC3)ON2)cc1
83 | 632 | O=C(CS(=O)Cc1ccco1)NC/C=C\COc1cc(CN2CCCCC2)ccn1 (stereo not drawn)
84 | 1020 | Cc1noc(C)c1-c1ccc(S(=O)(=O)N2CCC(C)CC2)cc1
85 | 667 | CCN1CCN(CCCNC(=O)c2ccc3nc(C(C)C)oc3c2)CC1

Row | Compound | RP-LC retention time [s]
86 | Cc1ccccc1S(=O)(=O)N1[C@H]2CC[C@@H]1c1cnc(-c3ccc(F)cc3)nc1C2 | 1210
87 | COc1cc([C@@H]2c3cc4c(cc3[C@H](O)[C@@H](CO)[C@@H]2C(=O)N2CCCC2)OCO4)cc(OC)c1OC | 641
88 | CCC1(CC=C2CCCCC2)C(=O)NC(=O)NC1=O | 863

Source: the METLIN SMRT retention time set (Domingo-Almenara et al. 2019)
